Legend:
[1] = Test Example 8: metabolic stability test; assay type: in vitro ADME, human
Protocol: The extent of metabolization of the compound according to the present invention in the liver was evaluated by reacting commercially available pooled human liver microsomes with the compound according to the present invention for a fixed time and calculating the remaining percentage by comparing the reaction sample with an unreacted sample.
The reaction (oxidative reaction) was conducted for 0 min or 30 min at 37° C. in the presence of 1 mmol/L of NADPH, in a 0.2 mL buffer solution containing 0.5 mg of human liver microsome protein/mL (50 mmol/L Tris-HCl pH 7.4, 150 mmol/L potassium chloride, 10 mmol/L magnesium chloride). After the reaction, 50 μL of reaction liquid were added to 100 μL of methanol/acetonitrile=1/1 (v/v) solution, mixed, and centrifuged for 15 minutes at 3000 rpm. The compound according to the present invention in the centrifuged supernatant was quantified using LC/MS/MS or solid phase extraction (SPE)/MS; the residual amount of the compound according to the present invention after the reaction was calculated, taking the amount of the compound at the 0 min reaction point as 100%.

[2] = system: HIV mutant strain 2 (E92Q/E138T/G140S/Q148H); assay: Test Example 2: resistance evaluation test (HeLa-CD4 reporter), mutant strain 2; assay type: cell-based; details: FC=EC50 of mutant strain/EC50 of wild strain; HeLa-CD4 cells
Protocol: (§1) A serial dilution series of test samples in 96-well microplates was prepared (50 […]).
(§2) 2.5×10^4/mL of HeLa-CD4 cell suspension was dispensed into each of the microplates containing test sample, in the amount of 100 μL/well, and HIV virus liquid (wild strain and mutant strain) was then dispensed in an amount of 50 μL/well. Mixing was performed using a plate mixer and culturing was performed for three days in a CO2 incubator. After removing the cultured supernatant of each well by suction, 100 μL of the cell solution buffer in the reporter measurement kit was dispensed thereto, and freezing was conducted in a refrigerator (−80° C.). The plates frozen in the refrigerator were defrosted at room temperature, then mixed using a plate mixer and centrifuged for 5 min at 1,200 rpm. The supernatant of each well was divided to 96-well microplates (BLACK) in the amount of 20 μL in each case. The chemiluminescence reagent in the reporter assay kit was dispensed in the amount of 100 μL in each case, and, after reacting for about 1 h at room temperature, the amount of luminescence was measured using a MicroBeta TRILUX.
(§3) The degree of resistance (fold change (FC)) of each mutant strain was also calculated using the following formula. FC=EC50 of mutant strain/EC50 of wild strain (Results)
(§4) The results of the example compounds relating to formula (I) of (A) are shown below. The […] in respect of mutant strain 1 (E138K/G140S/Q148H/N155H) and the FC in respect of mutant strain 2 (E92Q/E138T/G140S/Q148H) are shown in the Table.

[3] = system: HIV mutant strain 1 (E138K/G140S/Q148H/N155H); assay: Test Example 2: resistance evaluation test (HeLa-CD4 reporter), mutant strain 1; assay type: cell-based; details: FC=EC50 of mutant strain/EC50 of wild strain; HeLa-CD4 cells
Protocol: as §1, §2, §3, §4

[4] = pooled human liver microsomes, 30 min at 37° C., NADPH, compound concentration 0.5 μmol/L

Compound: CCN1C(=O)c2c(O)c(=O)c(C(=O)NCc3c(F)cc(F)cc3F)cn2N2CCCC[C@@H]12 [Compound I-016]
- Remaining percentage [1, 4]: 88%
- FC in respect of mutant strain 2 (E92Q/E138T/G140S/Q148H) [2]: 10
- FC in respect of mutant strain 1 (E138K/G140S/Q148H/N155H) [3]: 13

Compound: CCN1C(=O)c2c(O)c(=O)c(C(=O)NCc3ccc(F)cc3F)cn2N2CCCC[C@@]12C [Compound I-024]
- Remaining percentage [1, 4]: 92.5%
- FC in respect of mutant strain 2 (E92Q/E138T/G140S/Q148H) [2]: 16
- FC in respect of mutant strain 1 (E138K/G140S/Q148H/N155H) [3]: 24

Compound: CC(C)N1C(=O)c2c(O)c(=O)c(C(=O)NCc3c(F)cc(F)cc3F)cn2N2C[C@@H]3CC[C@@H](O3)[C@@H]12 [II-002]
- Remaining percentage [1, 4]: 80.2%
- FC in respect of mutant strain 2 (E92Q/E138T/G140S/Q148H) [2]: 7.4
- FC in respect of mutant strain 1 (E138K/G140S/Q148H/N155H) [3]: 3.1

Compound: COC[C@@H]1CC[C@H]2N(C(C)C)C(=O)c3c(O)c(=O)c(C(=O)NCc4ccccc4F)cn3N12 [II-005]
- Remaining percentage [1, 4]: 80.8%
- FC in respect of mutant strain 2 (E92Q/E138T/G140S/Q148H) [2]: 7.7
- FC in respect of mutant strain 1 (E138K/G140S/Q148H/N155H) [3]: 4.6

Compound: CC(C)N1C(=O)c2c(O)c(=O)c(C(=O)NCc3ccccc3F)cn2N2C[C@@H]3CC[C@@H](O3)[C@@H]12 [II-009]
- Remaining percentage [1, 4]: 87%
- FC in respect of mutant strain 2 (E92Q/E138T/G140S/Q148H) [2]: 6.4
- FC in respect of mutant strain 1 (E138K/G140S/Q148H/N155H) [3]: 5.6

Compound: CCN1C(=O)c2c(O)c(=O)c(C(=O)NCc3ccc(F)cc3F)cn2N2C[C@@H]3CCC[C@@H](C3)[C@@H]12 [II-013]
- Remaining percentage [1, 4]: 77.6%
- FC in respect of mutant strain 2 (E92Q/E138T/G140S/Q148H) [2]: 8.7
- FC in respect of mutant strain 1 (E138K/G140S/Q148H/N155H) [3]: 6.1

Compound: CCN1C(=O)c2c(O)c(=O)c(C(=O)NCc3c(F)cc(F)cc3F)cn2N2C[C@@H]3CC[C@@H](C3)[C@@H]12 [II-014]
- Remaining percentage [1, 4]: 74.3%
- FC in respect of mutant strain 2 (E92Q/E138T/G140S/Q148H) [2]: 7.3
- FC in respect of mutant strain 1 (E138K/G140S/Q148H/N155H) [3]: 5.7

Compound: CC(C)N1C(=O)c2c(O)c(=O)c(C(=O)NCc3ccc(F)cc3F)cn2N2C[C@@H]3CC[C@@H](O3)[C@@H]12 [II-016]
- Remaining percentage [1, 4]: 89.1%
- FC in respect of mutant strain 2 (E92Q/E138T/G140S/Q148H) [2]: 9
- FC in respect of mutant strain 1 (E138K/G140S/Q148H/N155H) [3]: 6.6

Compound: C[C@H]1CC[C@H]2N(C)C(=O)c3c(O)c(=O)c(C(=O)NCc4cccc(Cl)c4F)cn3N2C1 [II-019]
- Remaining percentage [1, 4]: 84.1%
- FC in respect of mutant strain 2 (E92Q/E138T/G140S/Q148H) [2]: 7
- FC in respect of mutant strain 1 (E138K/G140S/Q148H/N155H) [3]: 7.3

Compound: CC(C)N1C(=O)c2c(O)c(=O)c(C(=O)NCc3ccc(F)cc3F)cn2N2CCOC[C@@H]12 [II-021]
- Remaining percentage [1, 4]: 87.5%
- FC in respect of mutant strain 2 (E92Q/E138T/G140S/Q148H) [2]: 14
- FC in respect of mutant strain 1 (E138K/G140S/Q148H/N155H) [3]: 8.1

Compound: CN1C(=O)c2c(O)c(=O)c(C(=O)NCc3cccc(Cl)c3F)cn2N2C[C@@H]3CC[C@@H](C3)[C@@H]12 [II-023]
- Remaining percentage [1, 4]: 74.2%
- FC in respect of mutant strain 2 (E92Q/E138T/G140S/Q148H) [2]: 15
- FC in respect of mutant strain 1 (E138K/G140S/Q148H/N155H) [3]: 9.9

Compound: CCN1C(=O)c2c(O)c(=O)c(C(=O)NCc3ccc(F)cc3F)cn2N2[C@H]3COC[C@H]3C[C@@H]12 [II-038]
- Remaining percentage ([1]; human, microsomes, 0.5 h, 0.5 μmol/L, pH 7.4): 77.2%
- FC in respect of mutant strain 2 (E92Q/E138T/G140S/Q148H) [2]: 110
- FC in respect of mutant strain 1 (E138K/G140S/Q148H/N155H) [3]: 78

Compound: CCN1C(=O)c2c(O)c(=O)c(C(=O)NCc3ccc(F)cc3F)cn2N2C[C@H](COC)C[C@@H]12 [II-039]
- Remaining percentage [1, 4]: 84.3%
- FC in respect of mutant strain 2 (E92Q/E138T/G140S/Q148H) [2]: 62
- FC in respect of mutant strain 1 (E138K/G140S/Q148H/N155H) [3]: 48

Compound: CCN1C(=O)c2c(O)c(=O)c(C(=O)NCc3c(F)cc(F)cc3F)cn2N2C[C@@H]3CC[C@@H](O3)[C@@H]12 [II-041]
- Remaining percentage [1, 4]: 88.4%
- FC in respect of mutant strain 2 (E92Q/E138T/G140S/Q148H) [2]: 28
- FC in respect of mutant strain 1 (E138K/G140S/Q148H/N155H) [3]: 17

Compound: CCN1C(=O)c2c(O)c(=O)c(C(=O)NCc3c(F)cc(F)cc3F)cn2N2C[C@@H](C)C[C@@H]12 [II-043]
- Remaining percentage [1, 4]: 83.2%
- FC in respect of mutant strain 2 (E92Q/E138T/G140S/Q148H) [2]: 17
- FC in respect of mutant strain 1 (E138K/G140S/Q148H/N155H) [3]: 18

Compound: CCN1C(=O)c2c(O)c(=O)c(C(=O)NCc3ccc(F)cc3F)cn2N2C[C@@H](COC)C[C@@H]12 [II-056]
- Remaining percentage [1, 4]: 94.3%
- FC in respect of mutant strain 2 (E92Q/E138T/G140S/Q148H) [2]: 28
- FC in respect of mutant strain 1 (E138K/G140S/Q148H/N155H) [3]: 15

Compound: CN1C(=O)c2c(O)c(=O)c(C(=O)NCc3cccc(Cl)c3F)cn2N2C[C@@H]3CC[C@@H](O3)[C@@H]12 [II-058]
- Remaining percentage [1, 4]: 97.7%
- FC in respect of mutant strain 2 (E92Q/E138T/G140S/Q148H) [2]: 15
- FC in respect of mutant strain 1 (E138K/G140S/Q148H/N155H) [3]: 25

Compound: C[C@H]1CC[C@H]2N(C)C(=O)c3c(O)c(=O)c(C(=O)NCc4ccc(Cl)cc4F)cn3N2C1 [II-063]
- Remaining percentage [1, 4]: 95.7%
- FC in respect of mutant strain 2 (E92Q/E138T/G140S/Q148H) [2]: 25
- FC in respect of mutant strain 1 (E138K/G140S/Q148H/N155H) [3]: 38

Compound: CCN1C(=O)c2c(O)c(=O)c(C(=O)NCc3ccc(F)cc3F)cn2N2CC[C@H](C)C[C@@H]12 [II-064]
- Remaining percentage [1, 4]: 104%
- FC in respect of mutant strain 2 (E92Q/E138T/G140S/Q148H) [2]: 22
- FC in respect of mutant strain 1 (E138K/G140S/Q148H/N155H) [3]: 27

Compound: CCN1C(=O)c2c(O)c(=O)c(C(=O)NCc3ccc(F)cc3)cn2N2CCCC[C@@H]12 [II-070]
- Remaining percentage [1, 4]: 100%
- FC in respect of mutant strain 2 (E92Q/E138T/G140S/Q148H) [2]: 36
- FC in respect of mutant strain 1 (E138K/G140S/Q148H/N155H) [3]: 32

Compound: CCN1C(=O)c2c(O)c(=O)c(C(=O)NCc3ccc(F)cc3F)cn2N2[C@H](COC)CC[C@@H]12 [II-084]
- Remaining percentage [1, 4]: 97.5%
- FC in respect of mutant strain 2 (E92Q/E138T/G140S/Q148H) [2]: 38
- FC in respect of mutant strain 1 (E138K/G140S/Q148H/N155H) [3]: 39

Compound: CCN1C(=O)c2c(O)c(=O)c(C(=O)NCc3ccc(F)cc3F)cn2N2C[C@@H]3CC[C@@H](O3)[C@@H]12 [II-088]
- Remaining percentage [1, 4]: 101%
- FC in respect of mutant strain 2 (E92Q/E138T/G140S/Q148H) [2]: 45
- FC in respect of mutant strain 1 (E138K/G140S/Q148H/N155H) [3]: 47

Compound: CN1C(=O)c2c(O)c(=O)c(C(=O)NCc3c(F)cc(F)cc3F)cn2N2CCCC[C@@H]12 [II-089]
- Remaining percentage [1, 4]: 105%
- FC in respect of mutant strain 2 (E92Q/E138T/G140S/Q148H) [2]: 14
- FC in respect of mutant strain 1 (E138K/G140S/Q148H/N155H) [3]: 38

Compound: CN1C(=O)c2c(O)c(=O)c(C(=O)NCc3cccc(F)c3F)cn2N2CCCC[C@@H]12 [II-091]
- Remaining percentage [1, 4]: 96.9%
- FC in respect of mutant strain 2 (E92Q/E138T/G140S/Q148H) [2]: 17
- FC in respect of mutant strain 1 (E138K/G140S/Q148H/N155H) [3]: 48

Compound: CN1C(=O)c2c(O)c(=O)c(C(=O)NCc3cccc(Cl)c3F)cn2N2CCOC[C@@H]12 [II-094]
- Remaining percentage [1, 4]: 97.2%
- FC in respect of mutant strain 2 (E92Q/E138T/G140S/Q148H) [2]: 27
- FC in respect of mutant strain 1 (E138K/G140S/Q148H/N155H) [3]: 50

Reference: patent US12564595B2, “Prophylactic and therapeutic pharmaceutical agent for HIV infectious diseases characterized by comprising combination of integrase inhibitor and anti-HIV agent” (Shionogi & Co., Ltd., priority 2019, dated 2026)
